In patent US5840720A (priority 1995, dated 1998):
Where “and” joins values, the source holds several entries; their conditions need not be identical. Equal values may be shown once. Read-outs that look alike come from different tables or passages of the source. Where no end group is shown, it is not given here.

Columns and labels:
[1] = test system: calcium channel in the isolated guinea-pig atrium; test: CaCl2-induced chronotropic and inotropic effects in isolated guinea-pig atria; conditions: for inhibition of calcium-induced chronotropic and inotropic effects: pretreatment, increasing CaCl2, right and left atria
Protocol: Each point represents the mean of six experiments; vertical bars represent the S.E.M.
FIGS. 6A-6B Effect of CAPCNC6 (10 μM) on the positive chronotropic (spontaneously beating right atrium) and inotropic (electrically-driven left atria) effect of increasing Ca^2+ concentrations in guinea pigs. Beating rate and tension were expressed as % of control values. Data represents the mean±S.E.M. (n=7).
D. Effects of compound on the calcium channel in the isolated guinea-pig atrium

[2] = test system: isolated guinea-pig bronchi; design: species or system guinea pig (Hartley)
[3] = test system: isolated guinea-pig trachea; test: Capsaicin-induced contractility of isolated guinea-pig trachea; design: species or system guinea pig (Hartley); conditions: 0.01-30 μM capsaicin, cumulative
Source text: Each point represents mean±S.E.M of six experiments.
A. Antagonist activity of compounds on capsaicin-induced contractility of isolated guinea-pig bronchi and trachea
Adult guinea pigs (Hartley), weighing 350-450 g, were sacrificed by a blow on the head followed by cervical dislocation. The bronchi and trachea were removed from the lungs, cleaned of all parenchyma, and immediately placed in Kreb's solution. As the method reported by M. G. Belvisi et al. (Eur. J. Pharmacol. 215, 341-4, 1992).

[4] = test system: neuronal calcium currents; conditions: cited from earlier work
[5] = test system: isolated guinea-pig ileum; test: Capsaicin, substance P and carbachol-induced contractility of isolated guinea-pig ileum; conditions: for contraction of ileum smooth muscle: carbachol as control, substance P 0.1 μM; for inhibition of substance P-induced ileum contraction: SP 0.1 μM
Protocol: FIG. 4 The effects of CAPBZ on response of guinea-pig ileum to capsaicin (10 μM), substance P (SP, 0.1 μM), and carbachol (0.5 μM). […] Thirty minutes following washout, responses to SP, and carbachol were recovered.
C. Antagonist activity of compound on capsaicin and substance Pinduced contractilities of isolated guinea-pig ileum
The abdominal incisions for the guinea pig were made and ilea were isolated and placed in cold (4° C.) Tyrode's solution. 2.5 cm segments of ileum were then trimmed and suspended in an organ bath containing 20 ml low calcium Kreb's solution, aerated with 95% O2 and 5% CO2 at 37° C. As the method reported by M. Takaki et al. (Eur. J. Pharmacol. 174, 5762, 1989).
This effect of capsaicin or substance P was inhibited in the presence of 1.0-100 μM of compound 1 (CAPBZ), concentration-dependently.

neuronal sodium currents = conditions: cited from earlier work
[6] = test system: isolated guinea-pig right and left atria
[7] = test system: isolated guinea-pig atria; conditions: cited from earlier work; for action potential duration: guinea pig atria
airway = conditions: inhalation; cited from earlier work
[8] = test system: capsaicin-induced heart rate changes; type: in vivo, Wistar rats
capsaicin = conditions: cited from earlier work
[9] = test system: capsaicin-induced blood pressure changes; type: in vivo, Wistar rats
guinea-pig bronchi = conditions: cited from earlier work
[10] = test system: capsaicin-induced hypotensive reflex; type: in vivo, rats
[11] = test system: isolated guinea-pig right and left atrium; test: hCGRP-induced beating and tension of isolated guinea-pig atria
[12] = capsaicin 0.01-30 μM cumulative, compound 1 and 3 at 1.0-100 μM, capsazepine 1-10 μM
[13] = fast phase, 15 min infusion, one compartment model
[14] = slow phase, 15 min infusion, one compartment model
[15] = A phase, 15 min i.v. infusion 100 μg/kg/min, capsaicin 10 μg/kg i.v., one compartment model
[16] = C phase, 15 min i.v. infusion 100 μg/kg/min, capsaicin 10 μg/kg i.v., one compartment model
[17] = pretreatment i.t. 1 nmole, capsaicin i.a. 10 μg/kg, mean±S.E.M., n=6, control (None) -19.6 ± 1.9
[18] = 0.1-10 μM compound, 1.0 μM capsaicin, concentration-dependent

## [Ca+2].[Cl-].[Cl-] [CaCl2, reference compound]
[1]; cumulative CaCl2, electrically driven left atrium
  inotropic effect: positive inotropic effect
[1]; cumulative CaCl2, spontaneously beating right atrium
  chronotropic effect: positive chronotropic effect

## COc1cc(CNC(=O)CCCC/C=C/C(C)C)ccc1O [Capsaicin]
[2]; 0.01-30 μM capsaicin, cumulative
  contraction of isolated guinea-pig bronchi: concentration-dependent increase in contraction
[3]
  contraction of isolated guinea-pig trachea: concentration-dependent increase in contraction
[4]
  inhibition of neuronal calcium currents: inhibit neuronal calcium currents
[5]; capsaicin 10 μM
  contraction of ileum smooth muscle: weaker contractions
Neuronal sodium currents
  inhibition of neuronal sodium currents: inhibit neuronal sodium currents
[6]
  inotropic and chronotropic effect: positive inotropic and chronotropic response
[6]; listed as capsaicin
  inotropic and chronotropic effect: positive inotropic and chronotropic effect
[7]
  action potential duration: prolong action potential duration
[7]; isolated guinea-pig atria
  chronotropic and inotropic effects: potent positive chronotropic and inotropic effects
airway
  airway resistance: increase airway resistance and leads to bronchoconstriction

## Oc1cc2c(cc1O)CN(C(=S)NCCc1ccc(Cl)cc1)CCC2 [Capsazepine, reference compound]
[2]; [12]
  shift of capsaicin-induced contraction in bronchi: shifted rightward
[8]; [13]
  Recovery half-life (t1/2) of capsaicin-induced heart rate changes, fast phase: 1.36 min
[8]; [14]
  Recovery half-life (t1/2) of capsaicin-induced heart rate changes, slow phase: 3/52
capsaicin
  capsaicin antagonism / agonism: competitive capsaicin antagonist
[9]; A effect
  efficacy order of antagonist activities, A effect: capsazepine>NVABZ>NVABI
[9]; [15]
  Recovery half-life (t1/2) of capsaicin-induced blood pressure changes, A phase: 2.73 min
[9]; B effect
  efficacy order of antagonist activities, B effect: NVABI>capsazepine>NVABZ
[9]; 15 min i.v. infusion 100 μg/kg/min, capsaicin 10 μg/kg i.v., one compartment model
  Recovery half-life (t1/2) of capsaicin-induced blood pressure changes, B phase: 2.89 min
[9]; C effect
  efficacy order of antagonist activities, C effect: capsazepine>NVABI>NVABZ
[9]; [16]
  Recovery half-life (t1/2) of capsaicin-induced blood pressure changes, C phase: 3.78 min
[9]; rat, in vivo
  duration order of antagonist activities: NVABZ>NVABI>capsazepine
[9]; saline infusion after 100 μg/kg/min infusion
  recovery of antagonist activity to basal level: recovered to basal level by saline infusion for 30, 45, and 60 minutes gradually
guinea-pig bronchi
  inhibition of contractile response evoked by capsaicin or electrical field stimulation: effective in inhibiting the contractile response
[10]; [17]
  depressor reflex response: capsaicin-induced blood pressure changes after pretreatment: 25.8 ± 3.0

## CCCCCCCCC(=O)NCc1cc2c(c(OC)c1)OCN(c1ccc(C(=O)OCC)cc1)C2 [Compound 1, N[P-(carboxylic acid ethyl ester)-phenylamine-(4-oxymethylene, 5-methylene)-3-methoxybenzyl] nonanamide]
[2]; against capsaicin-induced contraction
  inhibitory effect in bronchi compared with trachea: more effective in bronchi than in trachea
[2]; [12]
  shift of capsaicin-induced contraction in bronchi: shifted rightward
[11]; after pretreatment with CGRP for 30 minutes
  change of CGRP-induced contractilities after CGRP pretreatment: could not change CGRP-induced contractilities
[11]; right and electrically driven left atrium, FIG. 7 CAPBZ 50 μM
  inhibition of hCGRP-induced beating and tension: not inhibited
[5]; compound 1.0-100 μM
  inhibition of substance P-induced ileum contraction: inhibited
[5]; compound 1.0-100 μM, listed as CAPBZ
  inhibition of substance P-induced ileum contraction: concentration-dependently reduction of response
[5]; carbachol 0.5 μM, FIG. 4
  reduction of ileum response to carbachol: concentration-dependently reduction of response
[5]; compound 1.0-100 μM, capsaicin 10 μM, concentration-dependent
  inhibition of capsaicin-induced ileum contraction: inhibited
[5]; thirty minutes following washout
  recovery of responses to SP and carbachol after washout: recovered
[1]
  inhibition of calcium-induced chronotropic and inotropic effects: could inhibit these calcium effects
[6]; [18]
  inhibition of capsaicin-induced positive inotropic and chronotropic effect: significantly inhibited
[6]; pretreatment for 30 min, capsaicin 1 μM, FIGS. 3A-3D
  effect of pretreatment on capsaicin-induced inotropic and chronotropic response: decreased the effect of capsaicin

## CCCCCCCCC(=O)NCc1cc2c(c(OC)c1)OCN(CCCCCC)C2 [Compound 6, N-[hexylamino-(4-oxymethene, 5-methylene)-3-methoxybenzyl] nonanamide]
[1]
  inhibition of calcium-induced chronotropic and inotropic effects: could inhibit these calcium effects
[6]; [18]
  inhibition of capsaicin-induced positive inotropic and chronotropic effect: significantly inhibited

## C[N+](C)(C)CCOC(N)=O [carbachol, reference compound]
[5]; capsaicin 10 μM
  contraction of ileum smooth muscle: maximum contraction

## CCCCCCCCC(=O)NCc1ccc(OCC(O)CO)c(OC)c1 (centres unmarked) [glyceryl nonivamide]
capsaicin
  capsaicin antagonism / agonism: selective capsaicin agonist

## CGRP
[7]
  action potential duration: prolong action potential duration

## N-[(4-hydroxy, 5-diethylaminomethyl)-3-methyoxybenzyl] nonamide [Compound 11]
[8]; rat, in vivo
  Recovery half-life (t1/2) of capsaicin-induced heart rate changes, fast phase: 11.95 min
  Recovery half-life (t1/2) of capsaicin-induced heart rate changes, slow phase: 15.75 min
[6]
  effect of pretreatment on capsaicin-induced inotropic and chronotropic response: decreased the effect of capsaicin
  inhibition of capsaicin-induced positive inotropic and chronotropic effect: significantly inhibited
[9]; rat, in vivo
  duration order of antagonist activities: NVABZ>NVABI>capsazepine
  efficacy order of antagonist activities, A effect: capsazepine>NVABZ>NVABI
  efficacy order of antagonist activities, B effect: NVABI>capsazepine>NVABZ
  efficacy order of antagonist activities, C effect: capsazepine>NVABI>NVABZ
  recovery of antagonist activity to basal level: recovered to basal level by saline infusion for 30, 45, and 60 minutes gradually
[9]; rat, in vivo, iv
  Recovery half-life (t1/2) of capsaicin-induced blood pressure changes, A phase: 10.67 min
  Recovery half-life (t1/2) of capsaicin-induced blood pressure changes, C phase: 21.75 min
[10]; rat, in vivo
  depressor reflex response: capsaicin-induced blood pressure changes after pretreatment: 19.2 ± 2.5

## N[p-ethylketone-phenylamino-(4-oxymethylene, 5-methylene)-3-methoxybenzyl] nonamide [Compound 12]
[8]; [13]
  Recovery half-life (t1/2) of capsaicin-induced heart rate changes, fast phase: 5.33 min
[8]; [14]
  Recovery half-life (t1/2) of capsaicin-induced heart rate changes, slow phase: 6.00 min
[6]; [18]
  inhibition of capsaicin-induced positive inotropic and chronotropic effect: significantly inhibited
[9]; [15]
  Recovery half-life (t1/2) of capsaicin-induced blood pressure changes, A phase: 4.30 min
[9]; 15 min i.v. infusion 100 μg/kg/min, capsaicin 10 μg/kg i.v., one compartment model, listed as NVADA
  Recovery half-life (t1/2) of capsaicin-induced blood pressure changes, B phase: 9.00 min and 9.01 min
[9]; [16]
  Recovery half-life (t1/2) of capsaicin-induced blood pressure changes, C phase: 4.49 min
[10]; [17]
  depressor reflex response: capsaicin-induced blood pressure changes after pretreatment: -10.6 ± 2.5

## [N-Allylamino-(4-oxymethylene, 5-methylene)-3-methoxybenzyl] nonanamide [Compound 3]
[2]
  inhibitory effect in bronchi compared with trachea: more effective in bronchi than in trachea
  shift of capsaicin-induced contraction in bronchi: shifted rightward

## substance P: SP (substance P) (RPKPQQFFGLM; ends and bridges not checked; UniProt P20366 58-68, looked up) [reference compound]
[5]; capsaicin 10 μM
  contraction of ileum smooth muscle: weaker contractions
